Measurements: patent US7875638B2, “Synthesis of epothilones, intermediates thereto, analogues and uses thereof” (Sloan-Kettering Institute for Cancer Research, priority 2002, dated 2011)
Read-outs that look alike come from different tables or passages of the source.

What was measured:
OPM-2 myeloma cells = assay: Cell cycle analysis (propidium iodide DNA staining), OPM-2; type: cell-based, human
Excerpt: FIG. 95 is cell cycle analysis as determined by Propidium iodide DNA staining. […] The two drugs induced the same patter of cell cycle arrest.

IGROV = assay: XTT cell growth inhibition, IGROV; type: cell-based; settings: Homo sapiens, read-out: IC50 (nM), IGROV
[1] = test system: RPMI-8226 (human multiple myeloma cell line); assay: Global gene expression (Affymetrix chip AU133 2.0); type: cell-based
Ovcar-3 = assay: XTT cell growth inhibition, Ovcar-3; type: cell-based; settings: Homo sapiens, OVCAR-3, read-out: IC50 (nM), Ovcar-3
[2] = test system: human xenografts in nude mice, such as MX-1; settings: mouse, in vivo
CCRF-CEM/Taxol = type: cell-based, human; settings: Homo sapiens, CCRF-CEM, 72 h
RPMI8226 = assay: XTT cell growth inhibition, RPMI8226; type: cell-based; settings: Homo sapiens, RPMI-8226, read-out: IC50 (nM), RPMI8226
HT-29 = assay: XTT cell growth inhibition, HT-29; type: cell-based; settings: Homo sapiens, HT-29, read-out: IC50 (nM), HT-29
[3] = Octanol-water partition (POW) number by HPLC; type: physicochemical; settings: HPLC estimate, pH 7.4 buffer; read-out: Lipophilicity octanol/water partition (POW)
Experimental: Determination of partition of octanol-water (POW) number. An HPLC method is used to estimate octanol-water partition. An Agilent 1100 HPLC system is used with an eclipse XDB C18 column 4.6×250 mm with a mobile phase of 60% acetonitrile/40% 25 mM potassium phosphate buffer at pH 7.4 with a flow rate of 0.8 ml per min. and the eluent is monitored at 250 nm. The standards used are benzyl alcohol, acetophenone, benzophenone, naphthalene, diphenyl ether and dibenzyl with known POW of […] respectively. Sodium dichromate is used to evaluate time zero which is 2.5 min and the retention times for the standards are 3.9, 5.4, 10.6, 14, 18.7 and 19.8 min, respectively. The k value is calculated by the formula of k=(trt−t0)/t0. Linear regression of log k vs. log POW gives a straight line with r^2=0.966. This graph is used to evaluate the POW value of the epothilone analogs.

HS-5 = assay: XTT cell growth inhibition, HS-5; type: cell-based; settings: Homo sapiens, HS5, read-out: IC50 (nM), HS-5
caspase 3 = assay: Caspase 3 activation by Western blot; type: cell-based, human; settings: myeloma cells
Excerpt: It is not clear whether caspase is involved in this process. Firstly, we investigated the activation of caspase 3, an effector caspase in the caspase pathway, in myeloma cells, by Western blot. […] Immunohistochemical staining of CAG myeloma cells using antibody specific to cleaved caspase-3 was used to show cytoplasmic and perinuclear localization features in apoptotic cells. […] Secondly, we attempted to assay the activity of caspase 8 and 9, initiator caspase in the caspase pathway, by fluorometric method. […] Note that increased caspase 9 activity was more prominent than caspase 8. The signals triggering the activation of caspase 8 or 9 are actively under investigation.

[4] = test system: Human marrow stromal cell lines, HS-27A and HS-5; assay: XTT cell proliferation, normal stromal cells; settings: read-out: IC50, stromal lines HS-27A and HS-5
Excerpt: Human marrow stromal cell lines, HS-27A and HS-5 immortalized by E6/E7 genes, have normal marrow stromal function, which support stem cell self-renewal, and proliferation.

With `C/C1=C/CC(/C(C)=C/c2csc(C)n2)OC(=O)C[C@H](O)C(C)(C)C(=O)[C@H](C)[C@@H](O)[C@@H](C)CCC1` (stereo partly shown) [Compound 1, 12,13-desoxyepothilone B, reference compound] the Cell cycle arrest (OPM-2 myeloma cells) was “arrested in G2M phase starting from 6 hours and absolutely blocked at 24 hours”, the IC50 (IGROV) was 15 ± 3.8 nM and the “Increase in expression, OAS2” value ([1]; 6 hrs or 18 hrs of dEpoB treatment) was “+2”. For the same compound, the “Increase in expression, MX1” value ([1]; 18 hrs of dEpoB treatment) was “+2.3”, the IC50 (Ovcar-3) was 14 ± 3.6 nM and the “Dose accomplishing complete suppression of tumor in a variety of xenografts” value [2] was 30 mg/kg. The “Maximal b.w. % drop without death” value [2] was 32%, the IC50 (CCRF-CEM/Taxol; read-out: IC50 (μM), CCRF-CEM/Taxol) was 0.0057 µM and the IC50 (CCRF-CEM/Taxol; read-out: IC50, C/Taxol (μM)) was 0.0046 µM. It also gave an IC50 (CCRF-CEM/Taxol; read-out: IC50, CCRF-CEM/Taxol) of 0.0046 µM, an IC50 (RPMI8226) of 36.7 ± 2 nM and an IC50 (HT-29) of 7.2 ± 2.2 nM. The chromatographic logP [3] was 4.4, the IC50 (HS-5) was 100 ± 8 nM and the “Cleaved caspase 3 (Western blot)” value (caspase 3) was “increased 17 kd cleaved caspase 3”. The IC50 [4] was 90 to 100 nM.
